The subject of test [1] is black bean aphids (Aphis fabae). Briefly: Black bean aphid root-systemic test: solution pipetted into the bottle holding the field bean roots. It is filed as in vivo. Particulars: read-out: mortality of the aphids owing to the root-systemic activity. How it is done: Pregerminated field bean seeds (Vicia faba) with seminal roots were transferred into amber glass bottles filled with tap water. Four milliliters of an aqueous solution of the formulated preparation to be tested were pipetted into the amber glass bottle. Then, the field bean was infested with approx. 100 black bean aphids (Aphis fabae). The plant and animals were then stored in a controlled-environment cabinet (16 hours light/day, 25° C., 40-60% atmospheric humidity). After storage for 3 and 6 days, the root-systemic action of the preparation on the aphids was determined. At a concentration of 300 ppm (based on active substance content), the preparations of Examples No. 1, 8, 20, 28, 30, 34, 36, 40, 52, 54, 56, 58, 118, 138, 146, 148, 154, 158, 176, 184, 368, 369, 370 caused 90-100% mortality of the aphids owing to the root-systemic activity.

For test [2] the test system is unchanged. Description: Black bean aphid test: plants and aphids immersed in solution of the formulated preparation. Type of test: in vivo. Particulars: read-out: mortality of the aphids. The method, then: Pregerminated field bean seeds (Vicia faba) with seminal roots were transferred into amber glass bottles filled with tap water and then populated with approximately 100 black bean aphids (Aphis fabae). The plants and aphids were then immersed for 5 seconds in an aqueous solution of the formulated preparation to be tested. After the solution had been allowed to run off, the plants and animals were stored in a controlled-environment cabinet (16 hours light/day, 25° C., 40-60% atmospheric humidity). After storage for 3 and 6 days, the effect of the preparation on the aphids was determined.

Usually mortality stands for the percentage killed. For the molecule `FC(F)(F)c1ccncc1-c1nc(CC2OCCCO2)no1` [Example 8, 3-(1,3-Dioxan-2-ylmethyl)-5-(4-trifluoromethyl-3-pyridyl)-1,2,4-oxadiazole], the mortality at 300 ppm in test [1] and in test [2] was 90 to 100% throughout.

Source of the values: patent publication US20020132813A1, “Heterocyclylalkylazole derivatives and their use as pesticides” (priority 2000, published 2002).
